Test results as given in patent publication US8809386B2, “Use of dynamin ring stabilizers” (Children's Medical Research Institute, priority 2009, dated 2014).

Legend:
dynamin = test: Electron microscopy of helical dynamin on PS liposomes; assay type: biochemical; settings: 5 μM, FIG. 8
From the text: FIGS. 8 (A) to (D) are electron micrographs showing Bis-T-23 prevents constriction or helical expansion of dynamin on PS liposomes in vitro. It stabilizes the dynamin helix, which loses its flexibility and forms uniform diameter rings, inhibiting dynamin ring disassembly.
A characteristic of helical dynamin is that the helix is a highly flexible structure. Upon GTP hydrolysis it is able to rapidly reduce its diameter (constriction) while also expanding in length (helical expansion) (Stowell et al. 1999; Chen et al. 2004; Roux et al. 2006). This is thought to be a potential mechanism utilized for the fission of the necks of newly budded endocytic vesicles in cells (Roux et al. 2006). The highly flexible nature of helical dynamin was confirmed by EM analysis of dynamin bound to phosphatidylserine liposomes in the absence of GTP or GDP (FIG. 8). Dynamin mixed with PS liposomes formed a helix with specific characteristics (FIGS. 8A and C): the individual loops of the helix were highly varied in diameter, formed at different angles relative to the underlying lipid, and the spacing between loops was highly variable. […] Bis-T-23 bound dynamin appeared similar to previous reports of GTPγS-bound dynamin on lipid nanotubes (Stowell et al. 1999).

[1] = tested on: mouse expressing ‘gain of function’ α-actinin 4 mutant protein; test: Proteinuria in mouse expressing gain of function α-actinin 4 mutant; assay type: in vivo; settings: IP, 166 μg/100 g body weight, up to 6 hours after administration, FIG. 20
Procedure: FIG. […] Proteinuria was measured using mouse Albumin-specific ELISA and Creatinine Companion assay kits (Exocell and Bethyl Laboratories) following manufacturer's protocols.
Mice expressing a ‘gain of function’ mutation in the ACTN4 gene encoding for α-actinin 4 has been fully characterized (Kaplan et al. 2000; Henderson et al. 2008; Yao et al. 2004). These animals develop FP effacement and proteinuria due to “hyper bundling” activity of α-actinin 4 mutant that induces aggregation of stress fibers. Proteinuria develops at 4-6 weeks of age. The animals used in the present study were obtained from Dr. Martin Pollak, Brigham and Women's Hospital, Boston, Mass., USA. Proteinuric phenotype was confirmed by determination of urinary albumin and creatinine using mouse Albumin-specific ELISA and Creatinine Companion assay kits (Exocell and Bethyl Laboratories) following the manufacturer's protocols. The control animal was a litermate. Bis-T-23 was dissolved in 100% DMSO to make a 10 μg/μl stock solution, of which 5 μl was diluted in 200 μl of 1×PBS, and this was injected intraperitoneally (IP) into the test animal (166 μg/100 g body weight) at time 0 hr. Protein levels in the urine were measured every 2 hours post injection.

For `N#CC(=Cc1cc(O)c(O)c(O)c1)C(=O)NCCCNC(=O)C(C#N)=Cc1cc(O)c(O)c(O)c1` [Bis-T-23, 2-cyano-N-{3-[2-cyano-3-(3,4,5-trihydroxyphenyl)-acryloylamino]-propyl}-3-(3,4,5-trihydroxyphenyl)-acrylamide], the “shape of dynamin helix on PS liposomes” value (dynamin) was “drastically altered the helical shape” and the “proteinuria (urinary albumin and creatinine)” value [1] was “decrease in proteinuria to wild-type levels”.
